# How the values were obtained:
# DDX5 = molecular target: T1, DDX5 (Homo sapiens, UniProt P17844); test: Biotin bead pull-down assay with biotinylated RK-33, immunoblot; format: binding; details: biotinylated RK-33 molecules, 10 μM
# T1 construct: Two plates of 70% confluent cells were lysed with IP lysis buffer; endogenous in cells
# Experimental: Mean from 3 replicates with SD. • J, K Colony-forming assay of A549 and H3255 cells treated with RK-33 and with various doses of radiation 4 h later. Curves were fitted with a quadratic polynomial equation. Mean from 2 replicates with SD. P-values were determined by the extra sum of squares F-test. Source data are available online for this figure.
# Two plates of 70% confluent cells were lysed with IP lysis buffer (Tris–HCl (pH 7.4) 25 mM, NaCl 150 mM, EDTA 1 mM, NP-40 1%, glycerol 5%, protease inhibitor). […] Streptavidin beads were added and incubated for 1 h at room temperature. The biotin-bead–RK-33 complex was extracted with a magnetic stand and washed seven times with PBS. Proteins were analyzed by immunoblot.
# [1] = Toxicology in SCID mice (histopathology, blood values); format: in vivo
# Experimental: Figure 5 Toxicity studies of RK-33 in mice • Following injection of 20 mg/kg of RK-33, twice a week for 7 weeks, extensive histopathological examination was carried out following necropsy. Identical patterns were observed both in the control and in the treated mice (n = 2). Samples were stained with H&E. Scale bar is 50 μm. • Pharmacokinetics of RK-33 in SCID mice at various time intervals. Results are mean ± SD from 5 mice. LC-MS/MS method was used to determine concentration of RK-33 in mouse plasma and tissue. • Liquid chromatography–mass spectrometry (LC-MS/MS) analysis was performed to determine different metabolites of RK-33. • RK-33 and metabolites characterized by LC-MS/MS in human liver microsomes using the scan mode function of the LC-MS/MS. • HAPI cells were treated with RK-33 (10 μM), HA14-1 (25 μM), or DMSO vehicle, followed by oligomycin (oligo, 0.5 μg/ml), FCCP (3 μM), and antimycin A (AA, 1 μM) while oxygen consumption rate (OCR) was measured. Pyruvate (10 mM) was added in combination with FCCP to ensure that substrate supply was not rate-limiting for maximal OCR. Data are mean ± SD from 2 to 3 wells and representative of independent experiments performed with two different HAPI passages. OCR is baseline-normalized to the point prior to drug or vehicle addition. • HAPI microglial cells were incubated for 1 h in glucose-free XF24 assay medium that was supplemented with 2-deoxyglucose (50 mM) and pyruvate (10 mM). RK-33 (10 μM), oligomycin (0.5 μg/ml), or vehicle control was additionally present as indicated. Results are mean ± SD from 12 replicates pooled from experiments using two consecutive passages. Significance was assessed by two-sided, unpaired t-test. TEXT PRINTED IN THE PICTURE: (B) RK-33: t½e (hours): 7.31 ± 1.16 (Organ: plasma); t½e (hours): 6.70 ± 1.17 (Organ: kidney); t½e (hours): 10.01 ± 1.24 (Organ: liver); t½e (hours): 8.92 ± 1.45 (Organ: spleen); t½e (hours): 7.48 ± 1.18 (Organ: breast); t½e (hours): 7.25 ± 1.25 (Organ: lung); t½e (hours): 6.72 ± 1.23 (Organ: brain); t½e (hours): 6.25 ± 1.19 (Organ: muscle) | (C) RK-33: Mouse Microsomes + NADPH: 100% (Inc. Time: 0); Mouse Microsomes - NADPH: 100% (Inc. Time: 0); Human Microsomes + NADPH: 100% (Inc. Time: 0); Human Microsomes - NADPH: 100% (Inc. Time: 0); Mouse Microsomes + NADPH: 11% (Inc. Time: 30); Mouse Microsomes - NADPH: 80% (Inc. Time: 30); Human Microsomes + NADPH: 49% (Inc. Time: 30); Human Microsomes - NADPH: 85% (Inc. Time: 30); Mouse Microsomes + NADPH: 4% (Inc. Time: 60); Mouse Microsomes - NADPH: 69% (Inc. Time: 60); Human Microsomes + NADPH: 35% (Inc. Time: 60); Human Microsomes - NADPH: 73% (Inc. Time: 60) DOUBTS OF THE COPYIST ABOUT THIS PICTURE: Panel C prints no substance label of its own; RK-33 is taken from the other panels of the same picture / Panel C prints no unit for Inc. Time / Panel B, column head: read as t½e (hours), small print; the sign after t may be 1/2 e / Panel D (retention times and [M+H]+ of RK-33 and peaks M1-M3) was left out as LC-MS data
# H1299.EJ cells = test: Non-homologous end-joining reporter assay; format: cell-based; details: 4–6 μM
# Experimental: NHEJ was assessed by the functional reporter system H1299-EJ, provided by E Dikomey. […] When these sites are incised by I-SceI, the artificial start codon is removed creating a DSB. Repair of this DSB by NHEJ restores GFP expression, so that cells capable for NHEJ can be identified by their GFP fluorescence intensity (Kriegs et al, [2010]). H1299.EJ cells were plated in a 6-well plate (1 × 10^5 cell/well) and treated with 4–6 μM RK-33. The following day, cells were transfected (in duplicates) with 1–2 μg of pSceI or pEGFP construct using TransIT-LT1 (Mirus, Madison, WI, USA) in serum-free media (Opti-MEM, Invitrogen, Carlsbad, CA, USA). Media was replaced after 4–6 h with complete media. Subsequently, cells were harvested by trypsinization, washed in PBS, and resuspended in 0.5 ml PBS. NHEJ activity was measured on a FACScan I instrument and analyzed on FlowJo software. Recombination frequency was calculated as ((% pSceI − % negative control) / % pEGFP). H1299-DR-GFP cells, provided by RG Bristow, were used to measure homologous recombination similarly as described above (Chan et al, [2008]).
# T1 sequence (P17844 whole entry): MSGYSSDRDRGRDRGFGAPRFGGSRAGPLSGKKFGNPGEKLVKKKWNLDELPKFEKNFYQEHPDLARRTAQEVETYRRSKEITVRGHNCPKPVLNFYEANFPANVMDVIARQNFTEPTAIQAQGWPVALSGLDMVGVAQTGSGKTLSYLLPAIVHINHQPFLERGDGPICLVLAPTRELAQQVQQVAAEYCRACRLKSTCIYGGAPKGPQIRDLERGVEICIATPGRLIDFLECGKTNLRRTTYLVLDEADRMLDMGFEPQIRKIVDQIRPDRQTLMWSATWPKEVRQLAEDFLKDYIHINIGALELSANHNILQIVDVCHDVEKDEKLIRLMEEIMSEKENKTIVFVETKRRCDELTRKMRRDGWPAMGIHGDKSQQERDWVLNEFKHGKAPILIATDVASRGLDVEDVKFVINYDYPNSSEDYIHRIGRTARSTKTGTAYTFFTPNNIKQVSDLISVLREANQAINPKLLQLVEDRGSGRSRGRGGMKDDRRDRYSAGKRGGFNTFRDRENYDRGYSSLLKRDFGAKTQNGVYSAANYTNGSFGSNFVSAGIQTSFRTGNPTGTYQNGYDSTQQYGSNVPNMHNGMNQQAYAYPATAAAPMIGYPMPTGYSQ
substance,measurement,setting,value
"diimidazo[4,5-d:4′,5′-f]-[1,3]diazepine [RK-33]",binding to DDX5 in pull-down,DDX5,not to the closely related proteins DDX5 and DDX17
same,toxicity at the dose used,[1]; SCID mice,non-toxic
same,ALP,"[1]; mouse, in vivo",69 ± 5 U/l
same,ALT,"[1]; mouse, in vivo",72 ± 34 U/l
same,AST,"[1]; mouse, in vivo",224 ± 152 U/l
same,Albumin,"[1]; mouse, in vivo",3.05 ± 0.05 g/dL
same,Amylase,"[1]; mouse, in vivo",905 ± 42 U/l
same,BUN,"[1]; mouse, in vivo",22 ± 2.0 mg/dL
same,Calcium,"[1]; mouse, in vivo",9.1 ± 0.2 mg/dL
same,Cholesterol,"[1]; mouse, in vivo",120 ± 1 mg/dL
same,Creatinine,"[1]; mouse, in vivo",0.35 ± 0.05 mg/dL
same,Glucose,"[1]; mouse, in vivo",166 ± 4 mg/dL
same,Hb,"[1]; mouse, in vivo",14.7 ± 0.6 g/dL
same,MCV,"[1]; mouse, in vivo",55.1 ± 1.3 fL
same,RBC,"[1]; mouse, in vivo",10.01 ± 0.77 M/μl
same,Thrombocytes,"[1]; mouse, in vivo",746 ± 185 K/μl
same,Triglycerides,"[1]; mouse, in vivo",215 ± 14 mg/dL
same,WBC,"[1]; mouse, in vivo",5.83 ± 2.61 K/μl
same,reduction of NHEJ,H1299.EJ cells,38%

# Source: article PMC4492822 (EMBO Molecular Medicine, 2015)
